Data on three molecules can be found in patent US5616618A, “Threo-3-(3,4-dihydroxyphenyl)serine analgesic composition” (priority 1993, dated 1997).

“Also recorded” adds a separate entry of the source.

Series [1] has as its system mice. Briefly: Effect of naloxone on L-threo-DOPS antinociception, tail flick test. The class given is in vivo. The note with it: for type of analgesic activity: from naloxone tests (tail flick and kaolin). As to the method: (§1) Antagonistic Effect of L-threo-DOPS Antinociceptive Action on Naloxone (Morphine Antagonist)
(§2) Tests were conducted in the same way as the tail flick test method and the kaolin-induced writhing test method in Test Example 1 described above. In the tail flick test method, however, 1 mg/kg of naloxone was subcutaneously administered 40 minutes after administration of 400 mg/kg of L-threo-DOPS, and the latency was measured 60 minutes after the 400 mg/kg L-threo-DOPS administration. The obtained data are shown in terms of change in latency (Δ latency). In the kaolin-induced writhing test, 0.01 mg/kg of naloxone was subcutaneously administered 55 minutes after administration of 400 mg/kg of L-threo-DOPS, and kaolin was administered 5 minutes after the administration of naloxone.
(§3) The results obtained in the tests are all shown by means ±standard error. Statistically significant difference between the groups was determined by Student's t-test or Newman-Keuls test. When P<0.05, the difference was judged to be significant.
(§4) The symbol V denotes the group administered with vehicle only, and the symbol N.S. denotes that there is no significant difference as compared to the control group.
For orientation: Thermal pain tests record how soon the animal reacts.

For series [2] the following is noted: cited from earlier work.
Series [3] relates to mice. As to the kind of experiment: Effect of phentolamine on L-threo-DOPS antinociception, tail flick test. In kind it is in vivo. The protocol:
Effect of Phentolamine as an α-Adrenaline Receptor Blocker on the Antinociceptive Action of L-threo-DOPS
Phentolamine was administered intracerebral-ventricularly (i.c.v.) or intrathecaly (i.th.) in a dose of 0.1 to 1 μg/mouse, 40 minutes after L-threo-DOPS was administered in a dose of 400 mg/kg. Then, the effect of phentolamine against L-threo-DOPS-induced antinociceptive action was determined in the tail flick test.
Statistically significant difference between the groups was determined by Student's t-test or Newman-Keuls test. When P<0.05, the difference was judged to be significant.
The results in FIG. 5 indicates change in latency (Δ latency, second) 60 minutes after the L-threo-DOPS administration.

Series [4] relates to mice. Briefly: Kaolin-induced writhing test. The class given is in vivo. The text has this: (§5) Mice were used for the kaolin-induced writhing test and the formalin test, wherein animal model for assessment of chronic pain is used [Pain, 51, 195-198 (1992)].
b) Kaolin-Induced Writhing Test
The test was proposed by Fujiyoshi, T. et al. as a nociceptive test for the assessment of endogenous bradykinin-induced pain [Fujiyoshi et al., Agents and Actions, 27, 332 (1989)]. In the present invention, a method somewhat modified from the Fujiyoshi test was used for the assessment. That is, a suspension of 125 mg/kg of kaolin in 0.2% Tween 80 solution was intraperitoneally administered to mice in a dose of 0.25 ml/10 g. Immediately thereafter, the total number of writhing reactions which were observed during 20 minutes was counted.
Thirty minutes, 1 hour and 2 hours before administration of kaolin, L-threo-DOPS was subcutaneously administered in a dose ranging from 100 to 400 mg/kg.
In the left graph, the symbol .largecircle. denotes the group administered with vehicle only, and the symbol .circle-solid. denotes the group administered with L-threo-DOPS. […] The symbol V denotes the group administered with vehicle only (n=5). **P<0.01, ***P<0.001 (when compared to the group administered with vehicle only).
(§6) The results obtained in the respective tests are all shown by means ±standard error. Statistically significant difference between the groups was determined by Student's t-test or Newman-Keuls test. When P<0.05, the difference was judged to be significant.
A general note: In writhing tests, fewer writhes than in controls are read as antinociception.

The test system of series [5] is mice. Briefly: Tail flick test, subcutaneous L-threo-DOPS. The class given is in vivo. The protocol: Thermal stimulation at a certain level was given onto mice at the tail, and the latency until the animal flicked the tail out of the thermal stimulation was measured. The analgesic effect was judged in terms of prolonged latency by administration of a drug (tail-flick test, see European Journal of Pharmacology, 212, 1992).
The test was conducted by using a tail flick analgesia meter (MK-330, Muromachi Kikai). The intensity of the beam was adjusted to produce a control latency of 2 to 2.5 seconds, and a cut-off time was set to be 8 seconds. The experimental data obtained were shown in terms of latency (second).
L-Threo-DOPS was suspended in a 0.2% Tween 80 solution and the resulting suspension was subcutaneously administered in a dose of 100 to 400 mg/kg. The tail flick latency was then measured with passage of time to determine antinociceptive action, namely, analgesic activity.
In the left graph, the symbol .largecircle. denotes the group administered with vehicle only (n=8), and the symbol .circle-solid. denotes the group administered with L-threo-DOPS (n=5). […] In the right graph, the symbol V denotes the group administered with vehicle only. *P<0.05, **P<0.01 (when compared to the group administered with vehicle only).
as §6

The subject of series [6] is mice. Briefly: Formalin-induced nociceptive test. The class given is in vivo. As to the method: as §5
c) Formalin-Induced Nociceptive Test
Formalin (0.5%, 25 μl) was administered subcutaneously into a mouse at the sole of the right hind paw. Immediately thereafter, the time required for the mouse to conduct licking or biting behavior was counted for 30 minutes at intervals of 5 minutes. The results are shown separately for Phase I (0-5 minutes after the formalin administration) and Phase II (10-30 minutes after the formalin administration). […]
The symbol V denotes the group administered with vehicle only. *P<0.05 (as compared to the group administered with vehicle only).
as §6

The next series deals with mouse. Briefly: Acute toxicity (LD50) in mouse. Particulars: oral and intraperitoneal.
Series [7] in a line: Acute toxicity (LD50) in mouse. Particulars: in vivo.
In series [8] the test system is mice. Briefly: Effect of benserazide on L-threo-DOPS antinociception, tail flick test. Particulars: L-threo-DOPS 400 mg/kg s.c., 60 minutes. In kind it is in vivo. The protocol:
Effect of Benserazide (Peripheral Nerve Decarboxylase Inhibitor) on the Antinociceptive Action of L-threo-DOPS
Benserazide was administered subcutaneously in a dose of 1 mg/kg, 60 minutes before the subcutainious administration of L-threo-DOPS (400 mg/kg). Alternatively, benserazide was administered intracerebralventricularly at a dose of 25 μg/mouse, 30 minutes before L-threo-DOPS was subcutaneously administered in a dose of 400 mg/kg. The effect of benserazide on the L-threo-DOPS-induced antinociceptive action 60 minutes after the L-threo-DOPS administration was examined according to the tail flick test.
(§7) The results obtained in this test are all shown by means ±standard error. Statistically significant difference between the groups was determined by Student's t-test or Newman-Keuls test. When P<0.05, the difference was judged to be significant.
The results in FIG. 6 indicate change in latency (Δ latency, second) 60 minutes after the L-threo-DOPS administration. […] The symbol V denotes the group administered with vehicle only, and the symbol N.S. denotes that there is no significant difference as compared to the control group.

Series [9] concerns mice. Briefly: Tail flick test, oral L-threo-DOPS. In kind it is in vivo. The protocol: Antinociceptive Action of L-threo-DOPS by Oral Administration
L-Threo-DOPS was orally administered to mice in doses of 200, 400 and 800 mg/kg, and was examined for the antinociceptive action according to the tail flick test method.
as §7
The results in FIG. 7 indicate, in the tail flick test, a relationship between the dose of L-threo-DOPS when orally administered and change in latency (Δ latency, second) 60 minutes after the L-threo-DOPS administration (n=6). *P<0.05, **P<0.01 (as compared to the control group).

Series [10] has as its system mice. Briefly: Effect of naloxone on L-threo-DOPS antinociception, kaolin-induced writhing test. The class given is in vivo. The note with it: L-threo-DOPS 400 mg/kg; naloxone 0.01 mg/kg s.c.; 60 minutes. As to the method:
as §1, §2, §3, §4

Where [11] appears, read: 100 to 400 mg/kg s.c., 60 minutes after administration.

Broadly, the LD50 is the dose expected to kill half of the subjects tested. On to `N[C@H](C(=O)O)[C@H](O)c1ccc(O)c(O)c1` (relative stereo) [threo-DOPS, threo-3-(3,4-dihydroxyphenyl)serine], for which the “type of analgesic activity” value in the series on mice [1] is “non-narcotic”. Further, the “analgesic effect in presence of naloxone (summary)” value with mice [1] (morphine antagonist naloxone, tail flick and kaolin tests) is recorded as “not antagonized by morphine antagonist, naloxone”. Also, in series [2] (known, U.S. Pat. No. 4,497,826), the fate after administration entry was “transported to a brain that is a site on which threo-DOPS acts, and then decarboxylated therein into a corresponding noradrenaline”. Moreover, in series [2] (with decarboxylase inhibitor, J. Pharm. Pharmacol., 1981, 33, 772-777), the “transportation into brain in combination with decarboxylase inhibitor” value was “can be accelerated”. For the same molecule, the “analgesic effect in presence of phentolamine (summary)” value with mice [3] (adrenaline blocker phentolamine administered in the brain) is listed as “suppressed”. The “analgesic effect in kaolin-induced writhing test (summary)” value with mice [4] (s.c. and oral, mice) is reported as “dose- dependently observed”. For the same molecule, in the series on mice [5] (s.c., mice), the “analgesic effect in tail-flick test (summary)” value is given as “exhibits the analgesic effect dose-dependently”. Further, the “analgesic effect in formalin test (summary)” value in the series on mice [6] (s.c. and oral, mice) is recorded as “dose- dependently observed”. In addition, the toxicity entry with mouse is given as “extremely weak toxicity”. In addition, the 50% lethal dose (LD50) was around 10000 mg/kg in [7] (ip) and at least 10000 mg/kg in series [7] (po).

Take `N[C@H](C(=O)O)[C@H](O)c1ccc(O)c(O)c1` [L-threo-DOPS]: the “antinociceptive action in presence of naloxone (tail flick)” value in the series on mice [1] (L-threo-DOPS 400 mg/kg, naloxone 1 mg/kg s.c., 60 minutes) is recorded as “hardly affected by morphine antagonist, naloxone”. Moreover, the “type of analgesic activity” value in the series on mice [1] is recorded as “non-narcotic analgesic activity; also recorded: non-opiate type antinociceptive action”. For the same molecule, the “inhibitory effect of phentolamine on L-threo-DOPS-induced prolongation of latency” value in the series with mice [3] (L-threo-DOPS 400 mg/kg s.c., phentolamine 0.1 μg/mouse i.c.v.) is “also observed”. Also, in the series with mice [3] (L-threo-DOPS 400 mg/kg s.c., phentolamine 1 μg/mouse i.c.v.), the “prolongation of latency by L-threo-DOPS in presence of phentolamine” value was “almost completely inhibited”. Moreover, in the series with mice [3] (L-threo-DOPS 400 mg/kg s.c., phentolamine 1 μg/mouse, printed intracerebralventricularly (right graph)), the “antinociceptive action of L-threo-DOPS in presence of phentolamine, right graph of FIG. 5” value was “partially but significantly inhibited”. In addition, in the series with mice [4] (200 mg/kg s.c.), the “antinociceptive action, kaolin-induced writhing” value is given as “significant antinociceptive action” and the “count of kaolin-induced writhing response” value was “decreased to the half”. Besides, the “decrease in writhing count” value in the series with mice [4] (200 mg/kg s.c., 30 minutes after administration) is listed as “the observed decrease was insignificant”. Also, in the series with mice [4] (200 mg/kg s.c., 2 hours after administration), the “decrease in writhing count” value is recorded as “the observed decrease was insignificant”. Moreover, the “effect on writhing, dose dependence” value in the series on mice [4] (setting [11]) is on record as “dose-dependent in the range of 100 to 400 mg/kg”. Also, in the series on mice [5] (400 mg/kg s.c.), the “time after administration at which significantly prolonged tail flick latency was observed” value is at least 40 min and the “time of maximum tail flick latency” value was “one”. Moreover, the tail flick latency result in the series with mice [5] (400 mg/kg s.c., 40 or more minutes after administration) is “significantly prolonged latency”. Moreover, the “tail flick latency, significance of effect” value in the series on mice [5] (400 mg/kg s.c., 2 hours after administration) was “no significant effect was observed”. Moreover, the “antinociceptive action, dose dependence (tail flick)” value in the series on mice [5] (setting [11]) is “dose-dependent in the range of 100 to 400 mg/kg”. Besides, in the series with mice [6] (400 mg/kg s.c., not shown in graphs), the “effect of increased dose in formalin test” value is listed as “no better effect was obtained”. For the same molecule, the “time required for nociceptive reaction (licking and biting), Phase I” value with mice [6] (100 to 200 mg/kg s.c., 0-5 minutes after formalin) is “did not affect the time required for the nociceptive reaction”. In addition, in the series on mice [6] (100 to 200 mg/kg s.c., 10-30 minutes after formalin), the “time required for nociceptive reaction (licking and biting), Phase II” value is “dose-dependently inhibited the reaction”. In the series with mice [8] (benserazide 25 μg/mouse i.c.v.), the “antinociceptive action in presence of benserazide” value is on record as “potently inhibited”. In addition, in the series with mice [8] (benserazide 1 mg/kg s.c.), the “antinociceptive action in presence of benserazide” value is “did not give any significant effect”. Moreover, the “effectiveness by oral administration” value in the series with mice [9] (oral) was “also effective when orally administered”. In the series on mice [9] (oral, 200, 400 and 800 mg/kg), the “time after administration at which significant effect was observed” value was at least 40 min and the “time of maximum antinociceptive effect” value is 60 min. In the series with mice [9] (oral, 200 to 800 mg/kg), the “antinociceptive action, dose dependence (oral tail flick)” value is reported as “dose-dependently”. In addition, the “antinociceptive action in presence of naloxone (kaolin-induced writhing)” value with mice [10] was “hardly affected by morphine antagonist, naloxone”.

Regarding `Cc1ccc(N(CC2=NCCN2)c2cccc(O)c2)cc1` [phentolamine], the “tail flick latency, phentolamine alone” value with mice [3] (phentolamine 1 μg/mouse i.c.v.) is “did not affect the latency”.
